The test system of assay [1] is HCV replicon genotype 1a. Kind of assay: microbe, parasite or virus in culture. The settings on record: Hepatitis C virus, 96 h, read-out: 1a IC50 (nM). It counts as cell-based, hepatitis C virus (HCV).
The subject of assay [2] is HCV replicon genotype 1b. Description: microbe, parasite or virus in culture. Conditions: Hepatitis C virus, 96 h, read-out: 1b IC50 (nM). The assay is classed as cell-based, hepatitis C virus (HCV).

Broadly, the IC50 is the concentration at which inhibition is half-maximal. Take `CNC(=O)c1c(-c2ccc(F)cc2)oc2cc(N(C)S(C)(=O)=O)c(-c3ccc4nnn([C@H](COC)c5ccc(F)cc5)c(=O)c4c3)cc12` [Compound 39, (S)-2-(4-fluorophenyl)-5-(3-(1-(4-fluorophenyl)-2-methoxyethyl)-4-oxo-3,4-dihydrobenzo[d][1,2,3]triazin-6-yl)-N-methyl-6-(N-methylmethylsulfonamido)benzofuran-3-carboxamide]: the IC50 was found to be 4.04 nM in assay [1] and 9.27 nM in assay [2].
For the molecule `CNC(=O)c1c(-c2ccc(F)cc2)oc2cc(N(C)S(C)(=O)=O)c(-c3ccc4c(n3)C(=O)N(Cc3ccccc3F)CO4)cc12` [Compound 8], the IC50 in assay [1] stood at 5.87 nM; in assay [2], 2.62 nM.
Turning to `CNC(=O)c1c(-c2ccc(F)cc2)oc2cc(N(C)S(C)(=O)=O)c(-c3ccc4nc(C)n(Cc5ccc(F)cc5)c(=O)c4c3)cc12` [Compound 55, 5-[3-(4-fluorobenzyl)-2-methyl-4-oxo-3,4-dihydroquinazolin-6-yl]-2-(4-fluorophenyl)-N-methyl-6-[methyl(methylsulfonyl)amino]-1-benzofuran-3-carboxamide], the IC50 amounted to 1.93 nM in assay [1] and 2.42 nM in assay [2].
For `CNC(=O)c1c(-c2ccc(F)cc2)oc2cc(N(C)S(C)(=O)=O)c(-c3cnc4c(c3)C(=O)NC(C3CC3)N4)cc12` (stereo not drawn) [Compound 16], in that order: 128 nM and 39.2 nM.
For the molecule `CNC(=O)c1c(-c2ccc(F)cc2)oc2cc(N(C)S(C)(=O)=O)c(-c3ccc4nc(C)n([C@H](CCO)c5ccc(F)cc5)c(=O)c4n3)cc12` [Compound 66, (R)-2-(4-fluorophenyl)-5-(3-(1-(4-fluorophenyl)-3-hydroxypropyl)-2-methyl-4-oxo-3,4-dihydropyrido[3,2-d]pyrimidin-6-yl)-N-methyl-6-(N-methylmethylsulfonamido)benzofuran-3-carboxamide], the IC50 in assay [1] stood at 7.29 nM; in assay [2], 4.06 nM.
In the same order, the values of `CNC(=O)c1c(-c2ccc(F)cc2)oc2cc(N(C)S(C)(=O)=O)c(-c3ccc4ncn(Cc5ccccc5)c(=O)c4c3)cc12` [Compound 49, 5-(3-benzyl-4-oxo-3,4-dihydroquinazolin-6-yl)-2-(4-fluorophenyl)-N-methyl-6-(N-methylmethylsulfonamido)benzofuran-3-carboxamide] are 6.25 nM and 10.2 nM.
As for `CNC(=O)c1c(-c2ccc(F)cc2)oc2cc(N(C)S(C)(=O)=O)c(-c3ccc4c(n3)C(=O)N(c3ccc(F)cc3)CO4)cc12` [Compound 2], the IC50 in assay [1] was 24.8 nM; in assay [2], 3.34 nM.
For `CNC(=O)c1c(-c2ccc(F)cc2)oc2cc(N(C)S(C)(=O)=O)c(-c3ccc4c(n3)C(=O)N(Cc3ccc(F)cn3)CO4)cc12` [Compound 11, 2-(4-fluorophenyl)-5-(3-((5-fluoropyridin-2-yl)methyl)-4-oxo-3,4-dihydro-2H-pyrido[2,3-e][1,3]oxazin-6-yl)-N-methyl-6-(N-methylmethylsulfonamido)benzofuran-3-carboxamide], in that order: 15.3 nM and 7.68 nM.
With `CNC(=O)c1c(-c2ccc(F)cc2)oc2cc(N(C)S(C)(=O)=O)c(-c3ccc4ncn(Cc5ccc(F)cc5OC)c(=O)c4c3)cc12` [Compound 51, 5-[3-(4-fluoro-2-methoxybenzyl)-4-oxo-3,4-dihydroquinazolin-6-yl]-2-(4-fluorophenyl)-N-methyl-6-[methyl(methylsulfonyl)amino]-1-benzofuran-3-carboxamide], the half-maximal inhibitory concentration (IC50) in assay [1] turned out to be 8.98 nM; in assay [2] it was 2.35 nM.
Take `CNC(=O)c1c(-c2ccc(F)cc2)oc2cc(N(C)S(C)(=O)=O)c(-c3cnc4ncn(Cc5ccc(F)cc5)c(=O)c4c3)cc12` [Compound 24]: the results for the IC50 in assay [1] and in assay [2] were 2.59 nM and 2.57 nM, respectively.
With `CNC(=O)c1c(-c2ccc(F)cc2)oc2ccc(-c3ccc4c(n3)C(=O)N(Cc3ccc(F)cc3)CO4)cc12` [Compound 34, 5-(3-(4-fluorobenzyl)-4-oxo-3,4-dihydro-2H-pyrido[2,3-e][1,3]oxazin-6-yl)-2-(4-fluorophenyl)-N-methylbenzofuran-3-carboxamide], the IC50 was found to be 8930 nM in assay [1] and 10400 nM in assay [2].
On to `CNC(=O)c1c(-c2ccc(F)cc2)oc2cc(N(C)S(C)(=O)=O)c(-c3ccc4nnn([C@H](CO)c5ccc(F)cc5)c(=O)c4c3)cc12` [Compound 40, 2-(4-fluorophenyl)-5-{3-[(1S)-1-(4-fluorophenyl)-2-hydroxyethyl]-4-oxo-3,4-dihydro-1,2,3-benzotriazin-6-yl}-N-methyl-6-[methyl(methylsulfonyl)amino]-1-benzofuran-3-carboxamide], for which the IC50 in assay [1] was 6.19 nM; in assay [2], 9.03 nM.
As to `CNC(=O)c1c(-c2ccc(F)cc2)oc2ccc(-c3ccc4c(n3)C(=O)N(C(C)(C)c3ccc(F)cc3)CO4)cc12` [Compound 33, 2-(4-fluorophenyl)-5-(3-(2-(4-fluorophenyl)propan-2-yl)-4-oxo-3,4-dihydro-2H-pyrido[2,3-e][1,3]oxazin-6-yl)-N-methylbenzofuran-3-carboxamide], the IC50 in assay [1] was found to be 708 nM; in assay [2] it was 1690 nM.
Regarding `CNC(=O)c1c(-c2ccc(F)cc2)oc2cc(N(C)S(C)(=O)=O)c(-c3cc4c(=O)n(Cc5ccc(F)cc5)nnc4cc3F)cc12` [Compound 70, 5-(7-fluoro-3-(4-fluorobenzyl)-4-oxo-3,4-dihydrobenzo[d][1,2,3]triazin-6-yl)-2-(4-fluorophenyl)-N-methyl-6-(N-methylmethylsulfonamido)benzofuran-3-carboxamide], the IC50 worked out at 11.3 nM in assay [1] and 2.61 nM in assay [2].
For `CNC(=O)c1c(-c2ccc(F)cc2)oc2cc(N(C)S(C)(=O)=O)c(-c3cc(OC)c4nnn(Cc5ccc(F)cc5)c(=O)c4c3)cc12` [Compound 71, 5-[3-(4-fluorobenzyl)-8-methoxy-4-oxo-3,4-dihydro-1,2,3-benzotriazin-6-yl]-2-(4-fluorophenyl)-N-methyl-6-[methyl(methylsulfonyl)amino]-1-benzofuran-3-carboxamide], the IC50 in assay [1] stood at 3.49 nM; in assay [2] it was 0.782 nM.
For `CNC(=O)c1c(-c2ccc(F)cc2)oc2cc(N(C)S(C)(=O)=O)c(-c3cc(OC)c4nc(C)n(Cc5ccc(F)cc5)c(=O)c4c3)cc12` [Compound 69, 5-(3-(4-fluorobenzyl)-8-methoxy-2-methyl-4-oxo-3,4-dihydroquinazolin-6-yl)-2-(4-fluorophenyl)-N-methyl-6-(N-methylmethylsulfonamido)benzofuran-3-carboxamide], in that order: 6.64 nM and 10.1 nM.
In the same order, the values of `CNC(=O)c1c(-c2ccc(F)cc2)oc2cc(N(C)S(C)(=O)=O)c(-c3cc4c(=O)n(Cc5ccc(F)cc5)nnc4cc3Cl)cc12` [Compound 73, 5-[7-chloro-3-(4-fluorobenzyl)-4-oxo-3,4-dihydro-1,2,3-benzotriazin-6-yl]-2-(4-fluorophenyl)-N-methyl-6-[methyl(methylsulfonyl)amino]-1-benzofuran-3-carboxamide] are 11.6 nM and 7.65 nM.
On to `CNC(=O)c1c(-c2ccc(F)cc2)oc2cc(N(C)S(C)(=O)=O)c(-c3ccc4c(n3)C(=O)N(Cc3ccc(OC)cc3)CO4)cc12` [Compound 5], for which the IC50 came out at 3.06 nM in assay [1] and 1.59 nM in assay [2].
